Source: patent US20240189408A1, “COMPOSITIONS AND METHODS FOR REDUCING METHANE EMISSIONS IN RUMINANT POPULATIONS” (Arkea Bio Corp., priority 2022, published 2024)
Where “and” joins values, the source holds several entries; their conditions need not be identical. Equal values may be shown once. Read-outs that look alike come from different tables or passages of the source.

Columns and labels:
Methanosarcina mazei = conditions: cited from earlier work
Methanomicrobium mobile = conditions: cited from earlier work
Mbb. Ruminantium = conditions: cited from earlier work
rumen methanogens = conditions: cited from earlier work
[1] = Adsorbent study: binding affinity and adsorptive capacity for 3-NOP, HPLC at 230 nm
Description: The solution was then placed in an ultrasonic bath for ˜4 hr and then allowed to equilibrate over 24h.

[2] = 3-NOP to adsorbent ratio study; assay type: physicochemical; conditions: 24 hr, HPLC
Description: Optimal loading of 3-NOP onto adsorbents was determined by varying ratios of 3-NOP to adsorbent. 3-NOP and adsorbent were speed mixed at 2000 rpm for 1 min at the following ratios by weight: 1:1.5, 1:2, 1:2.5. The adsorbed 3-NOP powder mixture was then placed in distilled water at 1% 3-NOP loading. The solution was allowed to equilibrate for 24 hr and then an aliquot was taken for HPLC to determine the reduction in 3-NOP concentration.

ovalbumin (OVA) = assay: OVA-specific IgG ELISA of sera after IM or SQ vaccination; assay type: in vivo, dairy cows; conditions: for OVA-specific IgG, Absorbance (OD450): one line per animal replicate
Description: (§1) Bovine nucleic acid vaccination protocols (SQ and IM) were assessed in vivo in the dairy cows through the quantification of the adaptive immune response following inoculation with ovalbumin (OVA). Immune response was assessed by quantifying total IgG and OVA-specific IgG over a 28-day period after vaccination. Both SQ and IM vaccination provided a robust immune response, with IM vaccination providing a higher total immune response than SQ vaccination.
(§2) Dairy cows were dried off for a period of eight days prior to vaccination. Each vaccine formulation was administered either by IM or SQ injection to three animals. In total, 15 animals were vaccinated with LNPs containing mRNA and 6 animals were vaccinated with empty LNPs. Intramuscular injections were delivered into the cow's right neck muscle by veterinary-trained staff using an 18-gauge 1-1.5″ needle. Subcutaneous injections were delivered into the cow's right shoulder by veterinary-trained staff using an 18-gauge 0.5-0.75″ needle. Total blood samples (˜20 mL) were collected by veterinary-trained staff. Samples were collected into 10 mL vacutainer tubes (2×10 mL) from the coccygeal vein (tail vein) by needle puncture. Harvested blood samples were then processed via ultracentrifugation for serum collection. Isolated serum samples were aliquoted, labeled and stored in cryogenic tubes at −20° C. until use.
Sera samples were thawed on ice and total IgG was quantified using NovateinBio's Bovine OVA sIgG Antibody ELISA Kit (Cat No. BG-BVN11731) following the manufacturer's recommended protocol. Each of the animals vaccinated with a construct show a demonstrable OVA-specific IgG response over the 28-day test period.

total IgG = assay: Total sera IgG by radial immunodiffusion after IM or SQ vaccination with OVA mRNA LNPs; assay type: in vivo, dairy cows; conditions: for Serum IgG Concentration: one line per animal replicate
Description: as §1, §2
Sera samples were thawed on ice and total IgG was quantified using Triple J Farms' Ig Radial Immunodiffusion (RID) kits (Cat No. 728411) following the manufacturers recommended protocol.

[3] = LNP size and polydispersity by DLS (Malvern Panalytical); assay type: physicochemical
Summary of the method: (§3)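 LNPs were made from mRNA at 0.35 mg/mL with Genvoy-ILM on a NanoAssemblr Ignite, dialysed into Ca/Mg-free DPBS to <0.5% ethanol and 0.2 µm filtered. Size and polydispersity were measured by DLS after 1:10 dilution in DPBS. Encapsulation efficiency was determined by RiboGreen assay per Precision Nanosystems protocol.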

[4] = LNP encapsulation efficiency, RiboGreen assay; assay type: physicochemical
Summary of the method: as §3

[5] = 0.2 g of adsorbent in 10 mL of 1% 3-NOP/H2O, after 24h, control 8.258 mM
[6] = 0.06 to 0.24 mmol/L, dose-dependent

## 3-bromopropanesulfonate [BPS]
Methanosarcina mazei; pure cultures
  concentration up to which the species appeared resistant: 250 µmol/L
Methanomicrobium mobile; pure cultures
  concentration up to which the species appeared resistant: 250 µmol/L
Mbb. Ruminantium; pure cultures
  concentration up to which the species appeared resistant: 250 µmol/L

## CC[C@H](C)C(=O)O[C@H]1C[C@@H](C)C=C2C=C[C@H](C)[C@H](CC[C@@H]3C[C@@H](O)CC(=O)O3)[C@H]21 [lovastatin]
Rumen methanogens; extracted from fermented rice straw, after 48 h in vitro incubation
  reduction of total CH4 production by rumen methanogens: ~28%
Rumen methanogens; rumen simulation technique (Rusitec), 150 mg/L
  reduction of CH4 production: approximately 42%

## C[N+](C)(C)CC(=O)O [Betaine]
[1]; [5]
  3-NOP concentration: 7.202 mM

## O=C([O-])CC(O)(CC(=O)[O-])C(=O)[O-].[Bi+3] [Bismuth Citrate]
[1]; [5]
  3-NOP concentration: 8.072 mM

## Nisin
Rumen methanogens
  suppression of CH4 in vitro: up to 40%

## Catechin
Rumen methanogens
  CH4 production: decreased CH4 production both in vitro and in vivo

## O=S(=O)([O-])CCBr.[Na+] [BES, 2-bromoethanesulfonate]
Methanosarcina mazei; pure cultures
  sensitivity to the inhibitor, ranking of three species: least sensitive
Methanomicrobium mobile; pure cultures
  sensitivity to the inhibitor, ranking of three species: intermediate
Mbb. Ruminantium; pure cultures
  sensitivity to the inhibitor, ranking of three species: most sensitive

## CC#CC(=O)OCC [ethyl 2-butynoate]
Methanosarcina mazei; pure cultures
  sensitivity to the inhibitor, ranking of three species: least sensitive
Methanomicrobium mobile; pure cultures
  sensitivity to the inhibitor, ranking of three species: intermediate
Mbb. Ruminantium; pure cultures
  sensitivity to the inhibitor, ranking of three species: most sensitive

## Bovicin HC5
Rumen methanogens
  suppression of CH4 in vitro: 50%

## O=S(=O)([O-])[O-].O=S(=O)([O-])[O-].O=S(=O)([O-])[O-].[Bi+3].[Bi+3] [Bismuth Sulfate]
[1]; [5]
  3-NOP concentration: 8.079 mM

## O=c1[nH]c(=O)c2nccnc2[nH]1 [lumazin, 2,4-pteridinedione]
Methanosarcina mazei; [6]
  CH4 production: significantly decreased
Methanomicrobium mobile; [6]
  CH4 production: significantly decreased
Mbb. Ruminantium; [6]
  CH4 production: significantly decreased

## Cyclodextrin
[1]; [5]
  3-NOP concentration: 7.676 mM

## O=S(=O)([O-])[O-].[Cu+2] [Copper Sulfate]
[1]; [5]
  3-NOP concentration: 7.814 mM

## NC(=O)CC[C@H](N)C(=O)O [Glutamine]
[1]; [5]
  3-NOP concentration: 7.588 mM

## NCCCC[C@H](N)C(=O)O [Lysine]
[1]
  3-NOP concentration: 18.583 mM
[2]; 3-NOP:Adsorbent 1:1.5, distilled water at 1% 3-NOP loading
  Average Integrated Area of 3-NOP in solution: 2336.2
[2]; 3-NOP:Adsorbent 1:2, distilled water at 1% 3-NOP loading
  Average Integrated Area of 3-NOP in solution: 2308.9
[2]; 3-NOP:Adsorbent 1:2.5, distilled water at 1% 3-NOP loading
  Average Integrated Area of 3-NOP in solution: 2266.6

B1: ARK015: mRNA: OVA + STOP, cytosolic OVA; SEQ ID NO: 16675 (nucleic acid)
chain: ATGTTCGTGTTCCTCGTGCTCCTGCCCCTCGTCTCCAGCCAGTGCGTGGGGTCCATAGGGGCTGCTTCTATGGAGTTCTGTTTTGATGTTTTCAAGGAACTGAAGGTTCACCATGCTAACGAGAACATCTTTTACTGTCCAATAGCCATCATGAGTGCGCTTGCTATGGTTTATTTGGGTGCAAAAGATTCTACTCGCACTCAGATTAATAAGGTCGTTAGATTCGACAAGCTTCCAGGGTTTGGAGACAGTATTGAGGCCCAATGTGGAACGTCAGTCAACGTCCATTCTTCTCTGCGGGACATTCTCAACCAAATAACGAAGCCAAACGACGTGTATTCCTTCTCACTCGCGTCACGGCTGTATGCTGAAGAAAGGTATCCTATCTTGCCAGAATATCTCCAGTGCGTCAAGGAGTTGTATCGAGGCGGACTGGAACCGATCAACTTTCAGACTGCAGCCGACCAGGCCCGCGAACTGATCAACAGCTGGGTCGAGTCTCAGACCAATGGGATCATACGCAATGTGTTGCAACCGAGTAGTGTCGACTCTCAGACGGCTATGGTCTTGGTGAACGCTATAGTCTTCAAAGGTCTGTGGGAGAAGACCTTCAAGGATGAAGACACACAAGCGATGCCATTCAGAGTCACCGAACAAGAAAGCAAACCCGTCCAAATGATGTACCAAATTGGGCTTTTTCGGGTGGCCTCTATGGCCTCTGAGAAAATGAAAATATTGGAACTGCCCTTCGCCAGCGGCACAATGAGTATGTTGGTCCTTCTTCCAGATGAAGTCTCAGGTCTCGAACAGCTTGAGTCTATCATTAACTTTGAGAAACTCACTGAATGGACTTCTTCCAATGTGATGGAAGAACGAAAAATCAAAGTCTACCTGCCCCGAATGAAGATGGAAGAGAAATATAATTTGACATCAGTTCTGATGGCCATGGGAATCACAGACGTGTTTTCATCCTCTGCGAATCTGTCTGGCATATCTTCCGCAGAATCTCTCAAGATCAGTCAAGCCGTCCACGCGGCCCATGCTGAGATAAATGAGGCGGGCAGAGAGGTGGTGGGGTCCGCCGAAGCTGGAGTCGACGCAGCTTCTGTCAGTGAAGAATTTAGGGCCGATCATCCTTTCCTGTTCTGCATAAAGCACATAGCTACGAACGCTGTGCTTTTCTTTGGCAGATGCGTTTCTCCATGA
modifications: listed as DNA
Ovalbumin (OVA); IM injection, Day 0, dairy cows
  OVA-specific IgG, Absorbance (OD450): 0.842 OD450 and 0.938 OD450 and 0.308 OD450
Ovalbumin (OVA); IM injection, Day 14, dairy cows
  OVA-specific IgG, Absorbance (OD450): 1.653 OD450 and 1.048 OD450 and 0.513 OD450
Ovalbumin (OVA); IM injection, Day 21, dairy cows
  OVA-specific IgG, Absorbance (OD450): 1.23 OD450 and 1.261 OD450 and 0.443 OD450
Ovalbumin (OVA); IM injection, Day 28, dairy cows
  OVA-specific IgG, Absorbance (OD450): 1.097 OD450 and 0.999 OD450 and 0.465 OD450
Ovalbumin (OVA); SQ injection, Day 0, dairy cows
  OVA-specific IgG, Absorbance (OD450): 1.394 OD450 and 1.327 OD450 and 3.178 OD450
Ovalbumin (OVA); SQ injection, Day 14, dairy cows
  OVA-specific IgG, Absorbance (OD450): 1.287 OD450 and 1.175 OD450 and 2.478 OD450
Ovalbumin (OVA); SQ injection, Day 21, dairy cows
  OVA-specific IgG, Absorbance (OD450): 1.504 OD450 and 1.277 OD450 and 1.985 OD450
Ovalbumin (OVA); SQ injection, Day 28, dairy cows
  OVA-specific IgG, Absorbance (OD450): 1.368 OD450 and 1.066 OD450 and 1.691 OD450
Ovalbumin (OVA); dairy cows, FIG. 10
  OVA-specific IgG response, intramuscular as compared to subcutaneous injection: ~4 fold
Total IgG; IM injection, Day 0, dairy cows, dose 348-468 ug
  Serum IgG Concentration: 3,658 mg/dL and 4,086 mg/dL and 3,167 mg/dL
Total IgG; IM injection, Day 14, dairy cows, dose 348-468 ug
  Serum IgG Concentration: 3,692 mg/dL and 5,735 mg/dL and 3,947 mg/dL
Total IgG; IM injection, Day 21, dairy cows, dose 348-468 ug
  Serum IgG Concentration: 4,070 mg/dL and 2,488 mg/dL and 3,797 mg/dL
Total IgG; IM injection, Day 28, dairy cows, dose 348-468 ug
  Serum IgG Concentration: 3,272 mg/dL and 4,153 mg/dL and 2,723 mg/dL
Total IgG; SQ injection, Day 0, dairy cows, dose 353-468 ug
  Serum IgG Concentration: 4,875 mg/dL and 3,680 mg/dL and 2,964 mg/dL
Total IgG; SQ injection, Day 14, dairy cows, dose 353-468 ug
  Serum IgG Concentration: 5,972 mg/dL and 3,257 mg/dL and 3,894 mg/dL
Total IgG; SQ injection, Day 21, dairy cows, dose 353-468 ug
  Serum IgG Concentration: 5,722 mg/dL and 3,149 mg/dL and 3,981 mg/dL
Total IgG; SQ injection, Day 28, dairy cows, dose 353-468 ug
  Serum IgG Concentration: 4,015 mg/dL and 3,009 mg/dL and 2,221 mg/dL
Total IgG; dairy cows, 3 animals per construct, 28-day test period, FIG. 9
  total sera IgG immune response, treated groups normalized against the empty groups: detectable immune response in at least one of the treated animals
[3]; LNP polydispersity, mRNA LNPs of Table 18
  PDI: 0.130
[3]; LNP size, mRNA LNPs of Table 18
  Z-avg.: 68.06 nm·days
[3]; mRNA LNPs, Example 6
  PDI: 0.1705
  Z-avg.: 96.66 nm·days
[4]; mRNA LNPs of Table 18
  Encapsulation efficiency: 62%
[4]; mRNA LNPs, Example 6
  Encapsulation efficiency: 84%
